Experiments:
SUM149 cells = experiment: Trypan blue viability assay; format: cell-based, human; details: for effect of Cu chelator on DSF-Cu-induced cell death: BCS 100 μM, TM 10 μM
Procedure: (§1) Cells were treated for 24 h in regular growth medium with Disulfiram (Sigma), CuSO4 (VWR), SOD mimetic (MnTnHex-2-PyP^5+), bathocuproine disulfonate (BCS, Sigma), and tetrathiomolybdate (TM, Sigma). Cell viability was determined by trypan blue exclusion as described previously (Aird et al., 2008) where % viability was calculated as live cells/total cells×100.

rSUM149 cells = experiment: Trypan blue viability assay; format: cell-based, human; details: for effect of Cu chelator on DSF-Cu-induced cell death: BCS 100 μM, TM 10 μM
Procedure: as §1

IBC cells = experiment: Trypan blue viability assay, IBC cell lines overall; format: cell-based
Procedure: as §1

[1] = tested on: IBC cells (SUM149, rSUM149); experiment: Cell-associated Cu in cell lysates by ICP-HRMS; format: cell-based; details: 10 μM Cu, 24 h
Procedure: Cell lysates were prepared as above. For tumors, a portion of each tumor was placed into tissue lysis buffer (GoldBio Technology) and homogenized using the Bullet Blender Storm and lysis beads (MidSci). Lysates were analyzed for Cu content using a Thermo Scientific Element 2 inductively coupled plasma high-resolution mass spectrometer (ICP-HRMS) at the W. M. Keck Elemental Geochemistry Laboratory (University of Michigan, Ann Arbor, Mich.), and Cu content of lysis buffer blank was subtracted from each sample. Values were normalized to protein for reporting as ng Cu/mg protein.

ALDH = experiment: ALDEFLUOR assay; format: cell-based, human; details: SUM149 cells, 24 h, sub-lethal dose
Procedure: ALDH enzymatic activity was assessed using the ALDEFLUOR kit (Stem Cell Technologies) according to the manufacturer's instructions. Briefly, cells were incubated with ALDH substrate for 35 minutes at 37° C. The specific ALDH inhibitor diethylaminobenzaldehyde (DEAB) was used as negative control. Sorting gates were established using 7-AAD stained cells for viability and ALDEFLUOR-stained cells treated with DEAB as negative controls. Dot plots from a representative experiment are shown with mean±SEM from four experiments.

Nrf2 = Nrf2 activity assay (ARE luciferase reporter); format: cell-based; details: Cu 10 μM, DSF 10-20 μM, DSF-Cu 150 nM
Procedure: Cells in opaque 96-well plates (Greiner Bio-One) were transfected with pGL4.37 (ARE firefly luciferase reporter, Promega) and pGL4.75 (Renilla luciferase control, Promega) plasmids using a 3:1 ratio of […] (Roche Applied Science, Indianapolis, Ind.) to DNA. The next day, cells were treated with as indicated. After 24 h, the Dual-Glo Luciferase Assay System (Promega) was used and luminescence read on a Veritas microplate luminometer (Turner BioSystems). Firefly luminescence was normalized to Renilla luminescence for each sample, and this value normalized to untreated.

[2] = accepted daily dosing of 250-500 mg, human plasma; cited from earlier work
[3] = tested on: BCM2 Xenograft brain metastatic cells; details: due to upregulation of GSH; cited from earlier work
tumor xenografts = experiment: Tumor radiation control curve with MnSOD mimic; format: in vivo
[4] = tested on: ctr1/ctr3Δ mutant MPY17 S. cerevisiae cells; experiment: Complementation of S. cerevisiae Cu+-transport mutants; format: cell-based, Saccharomyces cerevisiae; details: YPEG media, 30° C., 3 days, absorbance at 600 nm
Procedure: SEY6210 (wild type) (Robinson et al., 1988) and ctr1/ctr3Δ mutant MPY17 S. cerevisiae cells (Pena et al., 1998) were grown in YPEG media (3% ethanol, 3% glycerol, 1% yeast extract, 2% Bacto Peptone, 2% agar) with addition of 0-50 μM known Cu ionophore, zinc pyrithione (ZPT) (Reeder et al., 2011), or DSF. Cells were allowed to grow at 30° C. for 3 days; growth was assessed by measuring optical density at 600 nm on a Spectramax Plus 384 plate reader (Molecular Devices).

Q: Which results are given for `Cc1cc(-c2ccc(S(=O)(=O)O)cc2)c2ccc3c(-c4ccc(S(=O)(=O)O)cc4)cc(C)nc3c2n1` [BCS, bathocuproine disulphonate]?
A: effect of Cu chelator on DSF-Cu-induced cell death (SUM149 cells): almost completely blocked DSF-Cu-induced cell death; effect of Cu chelator on DSF-Cu-induced cell death (rSUM149 cells): almost completely blocked DSF-Cu-induced cell death

Q: For `O=S(=O)([O-])[O-].[Cu+2]` [Cu, CuSO4], which cytotoxicity (IBC cells; Cu alone (10 μM), 24 h) is on record?
A: not cytotoxic

Q: What about the Cu accumulation [1] of the same molecule?
A: slight increase

Q: What about the “ALDH+ population” value (ALDH) of the same molecule?
A: neither DSF nor Cu alone affected

Q: What about the Nrf2 transcriptional activity (Nrf2) of the same molecule?
A: induced Nrf2 transcriptional activity

Q: What does the source list for `CCN(CC)C(=S)SSC(=S)N(CC)CC` [DSF, Disulfiram]?
A: IC50 (SUM149 cells; Homo sapiens, SUM149, DSF alone, 24 h, trypan blue exclusion): ~17 µM; IC50 (rSUM149 cells; Homo sapiens, DSF alone, 24 h, trypan blue exclusion): 25 to 30 µM; concentrations at which DSF induced toxicity (IBC cells; DSF alone): greater than 10 μM; plasma concentration [2]: < 2000 nM

Q: With `[SH-].[SH-].[S]=[Mo]=[S]` [TM, tetrathiomolybdate] as the molecule, how does the “effect of Cu chelator on DSF-Cu-induced cell death” value (SUM149 cells) read?
A: almost completely blocked DSF-Cu-induced cell death

Q: What about the “effect of Cu chelator on DSF-Cu-induced cell death” value (rSUM149 cells) of the same molecule?
A: almost completely blocked DSF-Cu-induced cell death

Q: For `CC(C)C[C@H](NC(=O)[C@H](Cc1ccccc1)NC(=O)c1cnccn1)B(O)O` [bortezomib], which “fold less sensitive to bortezomib” value [3] is on record?
A: drugs; brain metastatic cells 60-fold less

Q: Which dose modifying factor (tumor xenografts; radiosensitization of xenograft tumors) does the source give for MnBuOE here?
A: 1.3

Q: What about the TCD50 dose (tumor xenografts; total RT applied in 5 fractions, treatment pre- and post-RT, saline controls 47Gy) of the same molecule?
A: 36.5 Gy

Q: For MnTnHexyl-2-PyP^5+, which “effect of SOD mimetic on DSF-Cu cell death” value (rSUM149 cells; 100-200 μM SOD mimetic) is on record?
A: blocked cell death caused by DSF-Cu treatment

Q: With zinc pyrithione [ZPT] as the molecule, how does the “growth of MPY17 cells” value [4] read?
A: grew similarly to the SEY6210 cells
